Results on five substances are retold here after article PMC8041193 (PLoS ONE, 2021).

Ends that are not written are not given here.

A short description of data set [1]: Non compartmental pharmacokinetic analysis of LA in porcine intestinal fluid. It is filed as in vivo. The following applies: pig intestinal fluid, oral LA 1 mg total (~0.05 mg/kg). Here is the method:
Non compartmental pharmacokinetic analyses of LA in the intestinal fluid was performed using commercially available software (Phoenix® WinNonlin® Software version 8.3, Certara, Princeton, NJ). The pharmacokinetic parameters estimated for LA in intestinal fluid after oral administration included the elimination rate constant (λz), elimination half life (HLλz), the area under the curve from time zero to the last time point (AUClast), the maximum concentration (Cmax), time to maximum concentration (Tmax), the mean drug residence time from time zero to the last time point (MRTlast), which were calculated using the linear log trapezoidal method.

The conditions of data set [2]: cited from earlier work. The text has this: In vitro dissolution is the standard method used in the pharmaceutical industry to assess drug release from solid oral dosage forms and to predict the release profile in the GI tract by simulating the GI environment with appropriate buffer media. In vivo/ in vitro correlation analysis (IVIVC) was specifically designed to assess whether in vitro predictions match in vivo drug behavior. However, in this study IVIVC could not be performed for several reasons, including the lack of an injectable formulation, an immediate release and other multiple other extended release formulations and the ...

Data set [3] is described as follows: LA concentration in porcine intestinal fluid collected via in vivo ultrafiltration probes, UPLC-MS/MS.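 On all read-outs here: pigs aged 6–8 weeks and weighing 15–20 kg, intestinal fluid sampled through surgically implanted ultrafiltration probes whose placement was checked post mortem.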 The following applies: pig; for level at time molar at 1 h / level at time molar at 2 h / level at time molar at 3 h / level at time molar at 4 h: female, Yorkshire cross, po, 1 mg; for Concentration of LA fragments in duodenal and jejunal samples: oral 1 mg LA, fragments detected, all concentrations below the LLOQ, UPLC-MS/MS.
Method: Three female Yorkshire cross pigs weighing between 15–20 kg and 6–8 weeks of age were used in this study. […] All pigs were considered healthy on the basis of physical exams, which were performed upon delivery and after a minimum of 3 days’ acclimatization. The animals were housed individually in stainless steel pens to allow comprehensive observation of changes to the animal’s behavior, feed consumption, and volume or character of excreta. While housed in pens, each animal had free access to water, and commercial pig pelleted feed was provided twice daily.
Pigs were sedated with injection of ketamine (11 mg/kg, IM; Vedco) and xylazine (0.25 mg/kg, IM; Akorn Animal Health). Intravenous administration of buprenorphine (0.04 mg/kg; Par Pharmaceutical) and intramuscular administration of flunixin meglumine (2.2 mg/kg; Norbrook) and ceftiofur sodium (Excede for Swine, 8mg/kg; Med Pharmex Inc) were given for analgesia and infection prophylaxis, respectively. Pigs were intubated and maintained under general anesthesia using isoflurane delivered in 100% oxygen during the surgery. The abdomen was approached via midline laparotomy, and the pylorus was located. The duodenum was traced from the pylorus to an accessible point on the left side of the abdomen approximately 15–18 cm distal to the pylorus (Fig 2). The intestine was lifted and an incision was made using a #11 scalpel blade, piercing the anti-mesenteric intestinal wall into the lumen. A guide needle was used to introduce the UF probe into the duodenum threading the probe proximally toward the pylorus. The guide needle was subsequently removed, taking care to leave the UF probe in place [20]. The three loops of the UF probe remained within the intestine, and each probe was secured in the intestine by using a Halstead pattern suture around the probe, followed by a finger trap suture pattern using 3–0 Vicryl (Henry Schein). The nonpermeable connection tubing of the UF probe was extended to the lateral body wall, paramedian to the incision, and retrieved through a guide needle in order to exteriorize the tubing. The tubing was secured outside the animal by suturing the tubing to the skin using 3–0 nylon suture (Fig 3). The tubing was attached to a needle inserted into a vacutainer for sample collection during the remainder of the experiment. A second UF probe was placed into the jejunum 20 cm distal to the duodenum using the same methodology (Fig 2). The abdomen was closed in a routine manner. The pigs were monitored for assessment of pain each day of the experiment and given buprenorphine as an analgesic medication if necessary.
The formulated beads were weighed and placed into gelatin capsules prior to dosing.

Setting [4] is: distal duodenum, mean of 3 dose replicates.
The mark [5] stands for this setting: proximal jejunum, mean of 3 dose replicates.
Where [6] appears, read: intestinal fluid (distal duodenum).
[7] abbreviates: intestinal fluid (proximal jejunum).
[8] abbreviates: intestinal fluid, distal duodenum.
[9] abbreviates: intestinal fluid, proximal jejunum.

For GGVLVQPG [LA, Larazotide acetate], the “MRTlast, mean residence time from time zero to the last time point” value amounted to 1.58 h in data set [1] (distal duodenum, dose replicate # 1); 1.42 h in data set [1] (distal duodenum, dose replicate # 2); 1.65 h in data set [1] (distal duodenum, dose replicate # 3); 1.55 h in data set [1] (setting [4]); 1.31 h in data set [1] (proximal jejunum, dose replicate # 1); 1.26 h in data set [1] (proximal jejunum, dose replicate # 2). The “MRTlast, mean residence time from time zero to the last time point” value in data set [1] (proximal jejunum, dose replicate # 3) was 1.53 h; in data set [1] (setting [5]), 1.37 h. Further, the “AUClast, area under the curve from time zero to the last time point” value in data set [1] (setting [4]) was 770 ng·h/mL; in data set [1] (setting [5]), 910 ng·h/mL. The “Cmax, maximum concentration” value in data set [1] (setting [4]) was found to be 530 ng/mL; in data set [1] (setting [5]), 780 ng/mL. Also, the “HLλz, elimination half life” value stood at 0.65 h in data set [1] (setting [4]) and 0.76 h in data set [1] (setting [5]). For the same substance, the “Tmax, time to the maximum concentration” value in data set [1] (setting [4]) and in data set [1] (setting [5]) was 1 h in each case. The “Λz, elimination rate constant” value in data set [1] (setting [4]) is 1.14 h⁻¹; in data set [1] (setting [5]), 1.0 h⁻¹. The “Concentrations in human plasma” value in data set [2] (all groups administered 0.25, 1, 4 and 8 mg LA, below the LOQ) is less than 0.5 ng/mL. In addition, the Plasma concentrations in data set [2] (human plasma, oral LA (12mg), HPLC-MS/MS, all below LLOQ) is less than 0.5 ng/mL. The level at time molar at 1 h in data set [3] (setting [6]) came out at 0.74 ± 0.3 µM; in data set [3] (setting [7]), 1.1 ± 0.48 µM; in data set [3] (setting [8]), 0.74 µM; in data set [3] (intestinal fluid, distal duodenum, LA concentration (µM), oral 1 mg LA human clinical formulation, 1h, case number 1, single measurement), 0.32 µM; in data set [3] (intestinal fluid, distal duodenum, LA concentration (µM), oral 1 mg LA human clinical formulation, 1h, case number 2, single measurement) it was 0.98 µM; in data set [3] (intestinal fluid, distal duodenum, LA concentration (µM), oral 1 mg LA human clinical formulation, 1h, case number 3, single measurement), 0.93 µM. Also, the level at time molar at 1 h was found to be 1.1 µM in data set [3] (setting [9]); 0.65 µM in data set [3] (intestinal fluid, proximal jejunum, LA concentration (µM), oral 1 mg LA human clinical formulation, 1h, case number 1, single measurement); 1.76 µM in data set [3] (intestinal fluid, proximal jejunum, LA concentration (µM), oral 1 mg LA human clinical formulation, 1h, case number 2, single measurement); 0.88 µM in data set [3] (intestinal fluid, proximal jejunum, LA concentration (µM), oral 1 mg LA human clinical formulation, 1h, case number 3, single measurement). Besides, the level at time molar at 2 h was determined as 0.27 ± 0.14 µM in data set [3] (setting [6]); 0.25 ± 0.13 µM in data set [3] (setting [7]); 0.27 µM in data set [3] (setting [8]); 0.14 µM in data set [3] (intestinal fluid, distal duodenum, LA concentration (µM), oral 1 mg LA human clinical formulation, 2h, case number 1, single measurement); 0.21 µM in data set [3] (intestinal fluid, distal duodenum, LA concentration (µM), oral 1 mg LA human clinical formulation, 2h, case number 2, single measurement); 0.47 µM in data set [3] (intestinal fluid, distal duodenum, LA concentration (µM), oral 1 mg LA human clinical formulation, 2h, case number 3, single measurement). In addition, the level at time molar at 2 h in data set [3] (setting [9]) stood at 0.25 µM; in data set [3] (intestinal fluid, proximal jejunum, LA concentration (µM), oral 1 mg LA human clinical formulation, 2h, case number 1, single measurement) it was 0.13 µM; in data set [3] (intestinal fluid, proximal jejunum, LA concentration (µM), oral 1 mg LA human clinical formulation, 2h, case number 2, single measurement), 0.18 µM; in data set [3] (intestinal fluid, proximal jejunum, LA concentration (µM), oral 1 mg LA human clinical formulation, 2h, case number 3, single measurement), 0.43 µM. Further, the level at time molar at 3 h in data set [3] (setting [6]) stood at 0.12 ± 0.09 µM; in data set [3] (setting [7]), 0.09 ± 0.1 µM; in data set [3] (setting [8]), 0.12 µM; in data set [3] (intestinal fluid, distal duodenum, LA concentration (µM), oral 1 mg LA human clinical formulation, 3h, case number 1, single measurement) it was 0.03 µM; in data set [3] (intestinal fluid, distal duodenum, LA concentration (µM), oral 1 mg LA human clinical formulation, 3h, case number 2, single measurement), 0.09 µM; in data set [3] (intestinal fluid, distal duodenum, LA concentration (µM), oral 1 mg LA human clinical formulation, 3h, case number 3, single measurement) it was 0.25 µM. For the same substance, the level at time molar at 3 h stood at 0.09 µM in data set [3] (setting [9]); 0.04 µM in data set [3] (intestinal fluid, proximal jejunum, LA concentration (µM), oral 1 mg LA human clinical formulation, 3h, case number 1, single measurement); 0.22 µM in data set [3] (intestinal fluid, proximal jejunum, LA concentration (µM), oral 1 mg LA human clinical formulation, 3h, case number 3, single measurement). The level at time molar at 4 h came out at 0.03 ± 0.01 µM in data set [3] (setting [6]); 0.03 ± 0.04 µM in data set [3] (setting [7]); 0.03 µM in data set [3] (setting [8]); 0.03 µM in data set [3] (intestinal fluid, distal duodenum, LA concentration (µM), oral 1 mg LA human clinical formulation, 4h, case number 1, single measurement); 0.02 µM in data set [3] (intestinal fluid, distal duodenum, LA concentration (µM), oral 1 mg LA human clinical formulation, 4h, case number 2, single measurement); 0.03 µM in data set [3] (intestinal fluid, distal duodenum, LA concentration (µM), oral 1 mg LA human clinical formulation, 4h, case number 3, single measurement). The level at time molar at 4 h worked out at 0.03 µM in data set [3] (setting [9]) and 0.09 µM in data set [3] (intestinal fluid, proximal jejunum, LA concentration (µM), oral 1 mg LA human clinical formulation, 4h, case number 2, single measurement). Besides, the “Continued presence of LA, concentration in proximal jejunum” value in data set [3] (fasted, oral 1 mg LA clinical formulation, proximal jejunum, 2–4 hours, range of individual samples) fell in the range of 0.00 to 0.43 µM. The “LA concentration” value in data set [3] (oral 1 mg LA human clinical formulation, proximal jejunum, 0h, case number 2, single measurement) came out at 0.00 µM; in data set [3] (oral 1 mg LA human clinical formulation, proximal jejunum, 0h, case number 3, single measurement), 0.00 µM; in data set [3] (oral 1 mg LA human clinical formulation, proximal jejunum, 3h, case number 2, single measurement, below LOD reported as zero), 0.00 µM; in data set [3] (oral 1 mg LA human clinical formulation, proximal jejunum, 4h, case number 1, single measurement, below LOD reported as zero), 0.00 µM; in data set [3] (oral 1 mg LA human clinical formulation, proximal jejunum, 4h, case number 3, single measurement, below LOD reported as zero) it was 0.00 µM.

H-GGVLVQP-OH [Fragment 3]: in data set [3], the “Concentration of LA fragments in duodenal and jejunal samples” value (shortened to “Concentration of LA fragments”) is less than 150 nM.

For the substance H-GVLVQPG-OH [Fragment 1], the “Concentration of LA fragments” value in data set [3] was less than 150 nM.

For the substance H-VLVQPG-OH [Fragment 2], the “Concentration of LA fragments” value in data set [3] is less than 160 nM.

On to H-Val-Leu-Val-Gln-Pro-OH [Fragment 4], for which, in data set [3], the “Concentration of LA fragments” value is less than 170 nM.
